Common to all, as to assay type: in vivo
Settings in all cases: 250 g/ha unless otherwise stated, evaluated after 13 days, five-point scale

Test [1] concerns Echinochloa crus-galli (ECHCG). Put plainly: Test 1 glasshouse herbicide test, pre-emergence application (Table B2). The procedure, abridged:
(§1)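 Pots sown in standard soil; sprayed 1 day (pre-emergence) or 8 days (post-emergence) after sowing at 250 g/ha unless stated, in acetone/water (50:50) with 0.5% Tween 20. Glasshouse 24/16 °C, 14 h light, 65% humidity; damage scored at 13 days on a 1–5 scale (5=81–100%, 1=0–20%).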

Test [2] has as its system Setaria faberi (SETFA). The test is described as above. Summed up: as §1
The subject of test [3] is Ipomoea hederacea (IPOHE). Described as above. Summed up: as §1
Test [4] relates to Amaranthus retoflexus (AMARE). The description is as above. Summed up: as §1
The subject of test [5] is Echinochloa crus-galli (ECHCG). Description: Test 1 glasshouse herbicide test, post-emergence application (Table B1). The procedure, abridged: as §1
Test [6] has as its system Setaria faberi (SETFA). The test is described as above. Summed up:
as §1

Test [7] deals with Ipomoea hederacea (IPOHE). Described as above. Summed up: as §1
In test [8] the test system is Amaranthus retoflexus (AMARE). The test is described as above. The procedure, abridged:
as §1

Turning to `COc1cnc(Oc2cccc(C#N)c2S(=O)(=O)CCCC(F)(F)F)nc1` [Compound A112], in test [1], the “% phytotoxicity ECHCG, pre-emergence application” value is listed as 1 (1=0 to 20%). Besides, in the test on Setaria faberi (SETFA) [2], the “% phytotoxicity SETFA, pre-emergence application” value is on record as 1 (1=0 to 20%). In addition, the “% phytotoxicity IPOHE, pre-emergence application” value in test [3] is 3 (3=41 to 60%). Further, the “% phytotoxicity AMARE, pre-emergence application” value in test [4] is recorded as 3 (3=41 to 60%). Also, in test [5], the “% phytotoxicity ECHCG, post-emergence application” value is recorded as 1 (1=0 to 20%). Also, the “% phytotoxicity SETFA, post-emergence application” value with Setaria faberi (SETFA) [6] is 1 (1=0 to 20%). Also, the “% phytotoxicity IPOHE, post-emergence application” value in test [7] is reported as 2 (2=21 to 40%). In test [8], the “% phytotoxicity AMARE, post-emergence application” value was 2 (2=21 to 40%).
Consider `CC(C)CCSc1ccccc1Oc1ncc(Cl)cn1` [Compound A70], for which the “% phytotoxicity ECHCG, pre-emergence application” value in test [1] is on record as 5 (5=81 to 100%). In the test on Setaria faberi (SETFA) [2], the “% phytotoxicity SETFA, pre-emergence application” value is reported as 5 (5=81 to 100%). The “% phytotoxicity IPOHE, pre-emergence application” value in test [3] is 1 (1=0 to 20%). Further, the “% phytotoxicity AMARE, pre-emergence application” value in test [4] is listed as 2 (2=21 to 40%). In test [5], the “% phytotoxicity ECHCG, post-emergence application” value is 5 (5=81 to 100%). The “% phytotoxicity SETFA, post-emergence application” value in the test on Setaria faberi (SETFA) [6] is on record as 4 (4=61 to 80%). Moreover, the “% phytotoxicity IPOHE, post-emergence application” value in test [7] is given as 4 (4=61 to 80%). Besides, the “% phytotoxicity AMARE, post-emergence application” value in test [8] is recorded as 2 (2=21 to 40%).
In the case of `N#Cc1cccc(Oc2ncc(Cl)cn2)c1SCCC(F)F` [Compound A99], in test [1], the “% phytotoxicity ECHCG, pre-emergence application” value is given as 5 (5=81 to 100%). Further, in the test on Setaria faberi (SETFA) [2], the “% phytotoxicity SETFA, pre-emergence application” value is recorded as 5 (5=81 to 100%). Further, the “% phytotoxicity IPOHE, pre-emergence application” value in test [3] is given as 5 (5=81 to 100%). For the same compound, the “% phytotoxicity AMARE, pre-emergence application” value in test [4] is reported as 5 (5=81 to 100%). Also, the “% phytotoxicity ECHCG, post-emergence application” value in test [5] was 5 (5=81 to 100%). In the test on Setaria faberi (SETFA) [6], the “% phytotoxicity SETFA, post-emergence application” value is 4 (4=61 to 80%). For the same compound, in test [7], the “% phytotoxicity IPOHE, post-emergence application” value is reported as 4 (4=61 to 80%). In addition, the “% phytotoxicity AMARE, post-emergence application” value in test [8] is given as 5 (5=81 to 100%).
`CCC(C)Sc1ccccc1Oc1ncc(Cl)cn1` (racemic) [Compound A65]: the “% phytotoxicity ECHCG, pre-emergence application” value in test [1] is given as 4 (4=61 to 80%). Moreover, the “% phytotoxicity SETFA, pre-emergence application” value in the test with Setaria faberi (SETFA) [2] is recorded as 4 (4=61 to 80%). Also, the “% phytotoxicity IPOHE, pre-emergence application” value in test [3] is 1 (1=0 to 20%). The “% phytotoxicity AMARE, pre-emergence application” value in test [4] was 3 (3=41 to 60%). The “% phytotoxicity ECHCG, post-emergence application” value in test [5] is 4 (4=61 to 80%). For the same compound, the “% phytotoxicity SETFA, post-emergence application” value in the test with Setaria faberi (SETFA) [6] is 3 (3=41 to 60%). Besides, in test [7], the “% phytotoxicity IPOHE, post-emergence application” value is 3 (3=41 to 60%). Moreover, the “% phytotoxicity AMARE, post-emergence application” value in test [8] is 1 (1=0 to 20%).
On to `CC(C)CCS(=O)(=O)c1ccccc1Oc1ncc(Cl)cn1` [Compound A75], for which the “% phytotoxicity ECHCG, pre-emergence application” value in test [1] was 4 (4=61 to 80%). In addition, in the test on Setaria faberi (SETFA) [2], the “% phytotoxicity SETFA, pre-emergence application” value is 4 (4=61 to 80%). Besides, the “% phytotoxicity IPOHE, pre-emergence application” value in test [3] is given as 1 (1=0 to 20%). The “% phytotoxicity AMARE, pre-emergence application” value in test [4] is on record as 5 (5=81 to 100%). The “% phytotoxicity ECHCG, post-emergence application” value in test [5] is 3 (3=41 to 60%). The “% phytotoxicity SETFA, post-emergence application” value in the test with Setaria faberi (SETFA) [6] is 2 (2=21 to 40%). In addition, the “% phytotoxicity IPOHE, post-emergence application” value in test [7] is listed as 2 (2=21 to 40%). The “% phytotoxicity AMARE, post-emergence application” value in test [8] is reported as 2 (2=21 to 40%).
In the case of `FCCSc1ccccc1Oc1ncc(Cl)cn1` [Compound A60], the “% phytotoxicity ECHCG, pre-emergence application” value in test [1] is 2 (2=21 to 40%). The “% phytotoxicity SETFA, pre-emergence application” value with Setaria faberi (SETFA) [2] is listed as 3 (3=41 to 60%). Moreover, the “% phytotoxicity IPOHE, pre-emergence application” value in test [3] is on record as 1 (1=0 to 20%). In addition, in test [4], the “% phytotoxicity AMARE, pre-emergence application” value is given as 4 (4=61 to 80%). Further, in test [5], the “% phytotoxicity ECHCG, post-emergence application” value was 1 (1=0 to 20%). Besides, in the test with Setaria faberi (SETFA) [6], the “% phytotoxicity SETFA, post-emergence application” value is recorded as 1 (1=0 to 20%). Moreover, the “% phytotoxicity IPOHE, post-emergence application” value in test [7] was 2 (2=21 to 40%). The “% phytotoxicity AMARE, post-emergence application” value in test [8] was 3 (3=41 to 60%).

These data come from patent US20220324815A1, “2-PHENOXY-PYRIMIDINE DERIVATIVES AS HERBICIDAL COMPOUNDS” (SYNGENTA CROP PROTECTION AG, priority 2019, published 2022).
